{"source": "patent EP0773292A1", "about": "“Immortalised embryonic hippocampal cells and their use” (BAYER AG, priority 1995, dated 1997)", "assay_type_in_all_cases": "cell-based, murine", "key": {"HC e/n XVB cells": {"tested_on": "HC e/n XVB cells", "assay": "Electrophysiology: whole-cell patch-clamp, ligand-activated currents", "conditions": "for ligand-activated currents: membrane potential clamped to -70mV", "description": "(§1) Electrophysiological setup: Membrane currents were measured with the patch-clamp technique in the whole-cell recording configuration (Hamill et al. 1981, Pfluegers Arch. 391:85-100). Current signals were amplified with conventional electronics (EPC-9 amplifier, HEKA Elektronik GmbH, Lambrecht, Germany), filtered at 10kHz, and sampled at 5 kHz by an interface connected to an IBM AT-compatible computer system, which also served as a stimulus generator.\n(§2) Solutions and electrodes: The standard bathing solution contained (in mM): Nacl 150, KCL 5, MgCl2 1.8, HEPES 5, and glucose 10. In some experiments an equimolar amount of NaCl was replaced by 5mM BaCl2. Recording pipettes had resistances about 5MΩ (Hilgenberg, Malsfeld, Germany). The pipettes contained (in mM): KCL 140, CaCl2 0.5, EGTA 5, MgCl2 2, and HEPES 10. The pH was adjusted to 7.4. In some experiments the pipette solution was designed to minimize the contribution of voltage-activated currents. In this case, investigating the ligand-activated currents, the pipette solution contained (in mM): CsCl 140, EGTA 10, and HEPES 10.\n(§3) Ligands were dissolved in the extracellular saline solution and applied via an U-tube application system. To record ligand-induced currents, the membrane potential was clamped to -70mV. For measurements of voltage-activated currents, cells were held at -70mV and every second the membrane was stepped through a 50 msec. de- or hyperpolarising test pulse to a potential between -170 and +20 mV."}, "HNMMCV13.1.E [1]": {"tested_on": "HNMMCV13.1.E", "assay": "Electrophysiology: whole-cell patch-clamp, ligand-activated currents", "conditions": "13.1.E; membrane potential clamped to -70mV", "description": "as §1, §2, §3"}, "HC e/n XV.B cells": {"tested_on": "HC e/n XV.B cells", "assay": "Ca2+-imaging (Fura-2), rise in intracellular calcium", "description": "(§4) Fluorescent Probe: Dynamic changes of intracellular calcium concentration were measured using the Fura-2 fluorescent probe (Roe et al. 1990, Cell Calcium 11:63-73). This fluorescent dye was chosen because of its selectivity, high quantum yield and extinction co-efficient. Fura-2 permeates the living cell as a acetoxymethylester and becomes trapped within the cell after hydrolysis by intracellular esterases. The calcium-sensitive free acid of Fura-2 is able to bind to calcium ions inside the cell. Fura-2 has an excitation maximum at 380 nm and the Fura2/calcium complex peaks at 340 nm. A change in intracellular calcium concentration was calculated by recording fluorescent video images at wavelengths of 340nm and 380nm excitation and 510nm emission and by dividing the grey values of the digitized video images of 380nm from 340nm.\n(§5) Loading cells with Fura-2: A stock solution with 2mM Fura-2-acetoxymethylester in dimethylsulfoxide (DMSO) was diluted to 5-10 µM with serum free Minimal Essential Medium (MEM, Gibco) containing 1.5% bovine serum albumin and 5 mM calcium chloride. The cells were incubated in a Falcon 96 well plate for 45-60 minutes at 37°C. Subsequently the cells were washed twice in N-(2-Hydroxyethyl)piperazine-N'-(2-ethanesulfonic acid) (HEPES, 5mM) buffered Tyrode solution (HEPES buffered salt solution containing 130 mM NaCl, 5 mM KCl, 2 mM CaCl2, 1 mM MgCl2, 5mM NaHCO3, 11 mM Glucose).\n(§6) Imaging procedure: 100 µl of Tyrode buffer was added to the plate wells and the cells were sequencially exposed to light at 340 nm and 380 nm under a fluorescent microscope (Nikon Diaphot). The exposition time was 100 ms. A series of video images at 3 second intervals was acquired and stored as digitised pictures in the image boards of an image analysis computer (Leica, Quantimet 570). After the acquisition of 8 images the test substances were applied. The grey levels of the cells, which correspond to the fluorescence intensity, were measured in the recorded video images. The ratio was determined by dividing the measured grey levels of the \"380 nm images\" by the grey levels of the \"340 nm images\" either from averaged images or from individual cells. For averaged results, the grey levels were measured over the whole images.\n(§7) The cells were loaded with Fura 2/AM between day 3 and 7 in culture. A number of agonists were tested for their ability to activate specific receptors on the cell surface which leads to a rise in intracellular calcium. The rise in calcium concentration in the cytoplasm can occur after activation of specific calcium channels in the cell membrane, after activation of neurotransmitter receptors directly coupled to ion channels that are permeable to calcium ions (i.e. NMDA or AMPA type glutamate receptors), or by activation of receptors, which propagate the signal through the activation of specific G-proteins, which regulate the activity of different enzymes in the interior of the cell (Connor, Cell Calcium 14 (1993), 185-200; Crouch and Hendry, Medical Res. Rev. 13 (1993), 105-123). The activation of phospholipase C generates the second messengers diacylglycerol and inositoltriphosphate from phospholipids in the cell membrane. The binding of inositoltriphosphate to receptors localised on internal vesicles which store calcium ions leads to a transient rise in the concentration of calcium ions in the cytoplasm (Berridge, M.J. 1993, Nature 361: 315-325)."}, "HNMMCV11.2.0": {"tested_on": "HNMMCV11.2.0", "assay": "Ca2+-imaging (Fura-2), rise in intracellular calcium", "description": "as §4, §5, §6, §7"}, "HNMMCV14.1.A [2]": {"tested_on": "HNMMCV14.1.A", "assay": "Ca2+-imaging (Fura-2), rise in intracellular calcium", "description": "as §4, §5, §6, §7"}, "HNMMCV13.1.E [3]": {"tested_on": "HNMMCV13.1.E", "assay": "Ca2+-imaging (Fura-2), rise in intracellular calcium", "description": "as §4, §5, §6, §7"}, "HNMMCV13.1.F": {"tested_on": "HNMMCV13.1.F", "assay": "Ca2+-imaging (Fura-2), rise in intracellular calcium", "description": "as §4, §5, §6, §7"}, "HNMMCV14.1.A [4]": {"tested_on": "HNMMCV14.1.A", "assay": "Electrophysiology: whole-cell patch-clamp, ligand-activated currents", "description": "as §1, §2, §3"}, "[5]": {"tested_on": "v-myc-expressing lines and clones", "assay": "Induction of differentiation", "conditions": "1mM dbcAMP", "description": "For experiments in the presence of growth factors or other differentiation inducing agents, the primary cell cultures or the immortalised cell lines were cultured in the presence of one or a combination of the following: β-FGF, 1ng/ml, (Collaborative Research), EGF; 5 ng/ml or 10 ng/ml, (Collaborative Research), NGF (10 ng/ml, Collaborative Reasearch), dibutyryl cyclic adenosine monophosphate (dbcAMP, 1mM, Sigma, Heidelberg), retinoic acid (5 µM; Sigma), IL-7 (50 U/ml), TGFα (5ng/ml).\nTo induce differentiation in vitro several combinations of the following factors were used: retinoic acid (RA, 10 µM), NGF, β-FGF, EGF, IL-7, TGFα, dbcAMP (1mM). In addition the effect of co-culture with cortical glial cells originating from postnatal day 0 to 1 and granule neurons originating from postnatal day 6 mice was investigated."}}, "data": [{"compound": "N[C@@H](CCC(=O)O)C(=O)O", "note": "[Glutamate, L-glutamate]", "values": [{"measurement": "ligand-activated currents", "setting": "HC e/n XVB cells; XV. B (with EGF, undifferentiated)", "result": "-"}, {"measurement": "ligand-activated currents", "setting": "HC e/n XVB cells; XV. B/ - EGF (differentiated)", "result": "++ (++: 30-70% positive cells)"}, {"measurement": "ligand-activated currents", "setting": "HNMMCV13.1.E [1]", "result": "+ (+: 10-30% positive cells)"}]}, {"compound": "C=C(C)[C@H]1CN[C@H](C(=O)O)[C@H]1CC(=O)O", "note": "[Kainate, kainic acid]", "values": [{"measurement": "transient rise in intracellular calcium concentration", "setting": "HC e/n XV.B cells", "result": "reproducible calcium signal"}, {"measurement": "transient calcium currents after the application of agonists and antagonists", "setting": "HNMMCV11.2.0", "result": "-"}, {"measurement": "transient rise in intracellular calcium concentration", "setting": "HNMMCV11.2.0", "result": "did not result in a transient rise in intracellular calcium concentrations"}, {"measurement": "transient calcium currents after the application of agonists and antagonists", "setting": "HNMMCV14.1.A [2]", "result": "-"}, {"measurement": "transient rise in intracellular calcium concentration", "setting": "HNMMCV14.1.A [2]", "result": "did not result in a transient rise in intracellular calcium concentrations"}, {"measurement": "transient calcium currents after the application of agonists and antagonists", "setting": "HNMMCV13.1.E [3]", "result": "-"}, {"measurement": "transient rise in intracellular calcium concentration", "setting": "HNMMCV13.1.E [3]", "result": "did not result in a transient rise in intracellular calcium concentrations"}, {"measurement": "transient calcium currents after the application of agonists and antagonists", "setting": "HNMMCV13.1.F", "result": "-"}, {"measurement": "transient rise in intracellular calcium concentration", "setting": "HNMMCV13.1.F", "result": "did not result in a transient rise in intracellular calcium concentrations"}, {"measurement": "I/V curve of the ligand response", "setting": "HC e/n XVB cells", "result": "linear"}, {"measurement": "ligand induced inward currents", "setting": "HC e/n XVB cells", "result": "evoked responses with different peak amplitudes"}, {"measurement": "reversal potential of the ligand-activated current", "setting": "HC e/n XVB cells", "result": 0, "unit": "mV"}, {"measurement": "ligand-activated currents", "setting": "HNMMCV14.1.A [4]", "result": "+ / -"}]}, {"compound": "CCCC(=O)Nc1ncnc2c1ncn2[C@@H]1O[C@@H]2COP(=O)(O)O[C@H]2[C@H]1OC(=O)CCC", "note": "[dbcAMP, dibutyryl cyclic adenosine monophosphate]", "values": [{"measurement": "expression of MAP-2", "setting": "[5]; cell line HNMMCV11.2.", "result": "induction of the expression of MAP-2"}, {"measurement": "differentiation of the cells", "setting": "[5]; v-myc-expressing lines and clones", "result": "induced a partial differentiation"}]}]}
